Results: BindingDB's records for doi:10.1021/jm0004906 (Glaxosmithkline, 2001)

Target: T1, Gag-Pol polyprotein [588-1027]/[588-1147] (Human immunodeficiency virus 1, UniProt P04585)
T1 construct: 588-1027; 588-1147
Assay: HIV-1 RT Assay
Source text: The IC50 of reverse transcriptase is the concentration that inhibits 50% of recombinant HIV-1 RT RNA-directed DNA polymerase activity in vitro.

SMILES	IC50 (pH 8) [µM]	IC50 [µM]
N#Cc1c(N)cccc1Sc1ccccc1Br [2-amino-6-[(2-bromophenyl)sulfanyl]benzonitrile]	> 21	
N#Cc1c(N)cccc1[S+]([O-])c1ccccc1Br (stereo not given) [2-amino-6-[(2-bromobenzene)sulfinyl]benzonitrile]		> 19
N#Cc1ccc(S(=O)(=O)c2cccc(N)c2C#N)cc1 [2-amino-6-[(4-cyanobenzene)sulfonyl]benzonitrile]		> 18
N#Cc1c(N)cccc1[S+]([O-])c1cccc(C(F)(F)F)c1 (stereo not given) [2-amino-6-{[3-(trifluoromethyl)benzene]sulfinyl}benzonitrile]		> 22
N#Cc1cccc([S+]([O-])c2cccc(N)c2C#N)c1 (stereo not given) [2-amino-6-[(3-cyanobenzene)sulfinyl]benzonitrile]		> 15
Cc1ccccc1[S+]([O-])c1cccc(N)c1C#N (stereo not given) [2-amino-6-[(2-methylbenzene)sulfinyl]benzonitrile]		> 21
N#Cc1c(N)cccc1S(=O)(=O)c1ccc(Br)cc1 [2-amino-6-[(4-bromobenzene)sulfonyl]benzonitrile]		> 14
N#Cc1ccc([S+]([O-])c2cccc(N)c2C#N)cc1 (stereo not given) [2-amino-6-[(4-cyanobenzene)sulfinyl]benzonitrile]		> 23
N#Cc1ccc(Sc2cccc(N)c2C#N)cc1 [2-amino-6-[(4-cyanophenyl)sulfanyl]benzonitrile]	> 19	
Cc1ccc([S+]([O-])c2cccc(N)c2C#N)cc1 (stereo not given) [2-amino-6-[(4-methylbenzene)sulfinyl]benzonitrile]		> 21
COc1ccc(Sc2cccc(N)c2C#N)cc1 [2-amino-6-[(4-methoxyphenyl)sulfanyl]benzonitrile]	> 17	
N#Cc1c(N)cccc1Sc1cccc(N)c1 [2-amino-6-[(3-aminophenyl)sulfanyl]benzonitrile]	> 23	
COc1ccc([S+]([O-])c2cccc(N)c2C#N)cc1 (stereo not given) [2-amino-6-[(4-methoxybenzene)sulfinyl]benzonitrile]		> 20
O=[N+]([O-])c1ccccc1Sc1ccccc1[N+](=O)[O-] [Bisnitrophenylsulfide]	> 20	
N#Cc1c(N)cccc1[S+]([O-])c1ccc(Br)cc1 (stereo not given) [2-amino-6-[(4-bromobenzene)sulfinyl]benzonitrile]		> 21
